The test system of the assay is Mycobacterium tuberculosis H37Rv growth inhibition, no glycerol. Briefly: Mycobacterium tuberculosis H37Rv growth inhibition, no glycerol, confirmatory dose response (AID 449764).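 For all read-outs here: growth read after 7 days of incubation.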 The note with it: for IC90: measured here: IC90 growth inhibition.

The term IC50 denotes the concentration that gives 50% inhibition. Broadly, the IC90 is the concentration at which the effect reaches the 90% level. Read a low IC90 as an effect from little substance.

For `Cc1ccc(S(=O)(=O)N2CCC(C(=O)OCc3ccccc3)CC2)cc1C`, the IC50 was 46.5 µM and the concentration for an effect of 90% (IC90) was found to be 52.2 µM. Take `Cc1ccc(-n2cc(CNCCn3nc(C)cc3C)c(-c3ccc(F)cc3)n2)cc1`: the half-inhibitory concentration (IC50) was 8.2 µM and the IC90 worked out at 13.5 µM. As to `Cc1cc(N2CCC(C)CC2)nc(-n2nc(C)cc2C)n1`, the 50% inhibitory concentration (IC50) was 0.97 µM and the IC90 worked out at 2.97 µM. As to `CCCc1ccc(NC(=O)C2CCN(c3cnccn3)CC2)cc1`, the IC50 was 67.2 µM and the IC90 was 82.7 µM. For the molecule `Cc1ccc(C2=NN(C)c3nc4ccccc4n3C2)cc1`, the IC50 was 59.3 µM and the IC90 is more than 100 µM. With `O=C(c1ccc(CNc2c(N3CCCC3)c(=O)c2=O)cc1)N1CC=C(c2ccccc2)CC1`, the concentration for half-maximal inhibition (IC50) is 1.43 µM and the IC90 came to 1.62 µM. As to `CC(C)NC(=O)c1sc(=S)n2c1[nH]c(=O)c1ccc(C(=O)NCCc3ccc(Cl)cc3)cc12`, the IC50 was 0.73 µM and the IC90 turned out to be 0.83 µM. On the same counts, the results for `CCOC(=O)C(/C=C(\C#N)C(=O)OCC)=C(/N)N1CCN(c2ccc(Cl)cc2)CC1` are 11.9 µM and more than 25 µM. The like results for `O=C(Nc1ccc(OCC(F)(F)C(F)F)c(C(F)(F)F)c1)c1ccc(Cl)cc1` were, in that order, 33.2 µM and 46.9 µM. Take `CCN(CC)CCOC(=O)c1ccc(N/C=C(/C#N)c2nc(-c3ccc4c(c3)OCO4)cs2)cc1`: the half-maximal inhibitory concentration (IC50) is 62.2 µM and the IC90 was more than 100 µM. The like results for `C(=C\c1nccc2c1[nH]c1ccccc12)/c1ccccc1` were, in that order, 31.2 µM and 42.7 µM. On the same counts, the results for `C/C(=N\NC(=S)NCC(C)(C)C)c1cc(F)cc(F)c1O` are 9.33 µM and 37.1 µM. The like results for `CCC[C@@H]1C[C@@H](C(=O)NC(C(C)Cl)[C@H]2O[C@H](SC)[C@H](O)[C@@H](O)[C@H]2O)N(C)C1` (stereo partly specified) were, in that order, 3.91 µM and 11.5 µM. On to `CC1=C(C)C(=O)C(CCCCC#CCCCC#CCO)=C(C)C1=O`, for which the IC50 is 24 µM and the IC90 came out at 26.2 µM. The like results for `C(=N\Nc1ccc2ccccc2n1)/c1ccc2c(c1)OCCO2` were, in that order, 5.03 µM and 7.13 µM. As for `CN1CCN(c2ccc(S(=O)(=O)N3CCCCC3)cc2NC(=O)/C=C/c2ccc(Cl)c([N+](=O)[O-])c2)CC1`, the 50% inhibitory concentration (IC50) is 34.9 µM and the IC90 was 47.6 µM. With `COc1ccc(C(=O)C[n+]2ccc3c(c2)nc(-c2cc(OC)c(OC)cc2OC)n3C)cc1`, the 50% inhibitory concentration (IC50) was 11.6 µM and the concentration for an effect of 90% (IC90) is 13.1 µM. Turning to `Cc1nn(Cc2ccccc2Cl)c2sc(C(=O)NCCCn3ccnc3)cc12`, the concentration for half-maximal inhibition (IC50) is 37.4 µM and the IC90 came to 56 µM. The like results for `CSC(=S)N/N=C/c1ccccc1` were, in that order, 39.8 µM and 54.1 µM.

Regarding `Cc1cc(N2CCN(c3ccc(C(F)(F)F)cc3[N+](=O)[O-])CC2)c2ccccc2n1`, the 50% inhibitory concentration (IC50) is 22.2 µM and the IC90 was determined as 24.9 µM. On the same counts, the results for `Cc1cc(C)cc(-n2c(C)c3c(C)nnc(C)c3c2C)c1` are 61.3 µM and 79.7 µM.

For the molecule `COc1ccc(Nc2nc(N)c([N+](=O)[O-])c(NC3CCCCC3)n2)cc1`, the IC50 is 18.3 µM and the concentration for an effect of 90% (IC90) is 26.3 µM. For the molecule `CNC(=O)COC(=O)c1ccc(-c2nc3ccccc3s2)s1`, the 50% inhibitory concentration (IC50) was 9.68 µM and the IC90 came out at 16.3 µM. As to `CC1(C)C2CCC1(C)C(OCC[N+](C)(C)CC(=O)OC1CCCCC1)C2` (stereo unspecified), the IC50 is 12 µM and the IC90 was determined as 13.1 µM. On the same counts, the results for `COc1ccc(C2=CC(c3c(C)nn(-c4ccccc4)c3Cl)n3nnnc3N2)cc1OC` (stereo unspecified) are 94.1 µM and more than 100 µM. On the same counts, the results for `CC[N+](C)(CC)CCCCOc1ccc2c(c1)C(=O)c1cc(OCCCC[N+](C)(CC)CC)ccc1-2` are 1.68 µM and 2.11 µM. Take `CC(OC(=O)c1cnc2ccccc2n1)c1ccccc1Cl` (stereo unspecified): the IC50 was 22 µM and the IC90 turned out to be 34 µM. Regarding `Cc1ccccc1Cn1ccc(=NCc2ccccc2)cc1`, the IC50 is 10.2 µM and the IC90 is 14 µM.

Take `COc1ccc(C(C)=O)cc1COC(=O)c1ccc2ccccc2n1`: the half-maximal inhibitory concentration (IC50) is 60.3 µM and the IC90 was more than 100 µM. With `COc1ccccc1C(=O)NC(=S)/C=C1/N(C)c2ccccc2C1(C)C`, the half-maximal inhibitory concentration (IC50) is 30.8 µM and the 90% effect concentration (IC90) came out at 46.8 µM.

Regarding `CCc1ccc(-c2csc(-c3c[nH]c4ccccc34)n2)cc1`, the concentration for half-maximal inhibition (IC50) was 17.1 µM and the concentration for an effect of 90% (IC90) amounted to 21.3 µM. The like results for `CCCCCC(=O)NNC(=S)NC(=O)c1ccc([N+](=O)[O-])cc1` were, in that order, 3.22 µM and 5.86 µM. In the case of `COc1ccc(CCNc2nc(N3CCCCC3)nc(N3CCCCC3)n2)cc1OC`, the half-maximal inhibitory concentration (IC50) was 18 µM and the IC90 was found to be 23.3 µM.

On to `COc1ccc(NC(=O)CSC2=C(C#N)C(c3ccco3)C(C(=O)Nc3nc4ccccc4s3)=C(C)N2)cc1` (stereo unspecified), for which the IC50 is 7.09 µM and the IC90 stood at 16.4 µM. Consider `CCOC(=O)c1nn(-c2ccc(C)c(C)c2)cc1O`, for which the IC50 is 99.8 µM and the IC90 is more than 100 µM. The like results for `CC(=O)OCC1O[C@@H](O[C@@H]2C[C@H]3C(C)(C)[C@H](OC(C)=O)CC[C@]3(C)[C@H]3CC[C@]45C[C@]4(CC[C@H]5[C@@H](C)C[C@@H](O)[C@H](O)C(C)(C)O)[C@@]32C)[C@H](O)[C@@H](O)[C@@H]1O` (stereo partly specified) were, in that order, 25.9 µM and 35.7 µM. On the same counts, the results for `O=C(/C=C/c1ccco1)Oc1ccc(C(=S)N2CCOCC2)cc1` are 60.3 µM and more than 100 µM.

As to `CCC(=O)Nc1nc2ccccc2n1Cc1ccc(Cl)cc1`, the IC50 was less than 0.2 µM and the IC90 was 4.27 µM. `N#Cc1c(-c2ccccc2)c(-c2ccccc2)nn(CC(=O)NNC(=O)Nc2ccc(Cl)c(Cl)c2)c1=O`: the 50% inhibitory concentration (IC50) was 47.9 µM and the IC90 came to 54.7 µM. The like results for `CC(C)=CCOc1ccc([C@@H]2COc3c(ccc4c3C=CC(C)(C)O4)C2)c(O)c1` were, in that order, 25.4 µM and 43 µM. The like results for `CCOC(=O)c1sc2nc(C)nc(SC(C)C(=O)N(C)c3ccccc3)c2c1C` (stereo unspecified) were, in that order, 34.8 µM and 44.6 µM. For the molecule `CC(C)CS(=O)(=O)C1=NN2C(=N)/C(=C\c3ccc(OC(=O)c4ccco4)cc3)C(=O)N=C2S1`, the IC50 is 20.9 µM and the IC90 was 26.5 µM. On the same counts, the results for `O=C(OCc1nc2ccccc2s1)c1ccc(Br)o1` are 33.5 µM and more than 50 µM.

Regarding `COc1cc(/C=C/c2cc[n+](C)cc2)ccc1OCC(=O)Nc1ccc(Cl)c(Cl)c1`, the IC50 was 25 µM and the IC90 came out at 28 µM. In the case of `COc1ccc(-c2csc3ncnc(N4CCN(c5ccccc5OC)CC4)c23)cc1`, the IC50 is 22.8 µM and the IC90 turned out to be 25.5 µM. Turning to `Cn1nnnc1Sc1ncnc2scc(-c3cc4ccccc4o3)c12`, the IC50 was 5.11 µM and the IC90 was 12.1 µM. The like results for `Cc1ccc(C(=O)c2cc(C)sc2NC(=O)CN2CCN(C(=O)c3ccco3)CC2)cc1` were, in that order, 14.9 µM and 27.4 µM. The like results for `Cc1[nH][nH]c(=O)c1C(c1ccc(-c2ccc(Cl)c(Cl)c2)o1)c1c(C)[nH][nH]c1=O` were, in that order, 82.1 µM and more than 100 µM. As to `CC(C)(C)c1csc(NC(=O)c2c(F)c(F)c(F)c(F)c2F)n1`, the IC50 was 21 µM and the IC90 turned out to be 29.4 µM. `CCCOc1cccc(C(=O)NC(=S)Nc2ccc(N3CCN(C)CC3)cc2)c1` registered an IC90 of more than 100 µM. Turning to `CCCCCCCCn1sccc1=O`, the IC50 was 2.06 µM and the IC90 came to 2.83 µM.

As for `C/C(=N/NC(=O)c1ccccn1)c1c[nH]c2ccccc12`, the half-maximal inhibitory concentration (IC50) was 10.6 µM and the IC90 amounted to 21.4 µM.

Regarding `CC1=CC(=O)C(C(C)C)=C/C1=N/OS(=O)(=O)c1ccccc1`, the half-inhibitory concentration (IC50) was 4.28 µM and the IC90 is 7.65 µM. The like results for `CCOC(=O)c1ccc(N=c2sc(C(=O)OC)cc(=O)n2CCCN2CCOCC2)cc1` were, in that order, 9.02 µM and 16.9 µM. Consider `Cc1ccc(-c2noc(=O)n2CC(=O)c2ccc(Cl)cc2)cc1`, for which the concentration for an effect of 90% (IC90) was more than 50 µM. `CCn1cc(Br)c(C(=O)Nc2ccc(C(=O)OC(C)C)cc2)n1`: the half-inhibitory concentration (IC50) is 39.3 µM and the IC90 amounted to 59.5 µM. On the same counts, the results for `CC(=O)N1CCN(c2ccc(OC[C@H]3CO[C@](Cn4ccnc4)(c4ccc(Cl)cc4Cl)O3)cc2)CC1` are 14.6 µM and 20.8 µM. As for `Cc1ccc(NS(=O)(=O)c2ccc(NC(=O)CN(c3cc([N+](=O)[O-])ccc3C)S(C)(=O)=O)cc2)c(C)c1`, the IC50 is 33.1 µM and the 90% effect concentration (IC90) was more than 100 µM. Regarding `CCOC(=O)c1ccc2c(c1)C(=O)N(C1CCCCC1)C2=O`, the IC50 was 85 µM and the IC90 is more than 100 µM. On the same counts, the results for `O=C1c2ccccc2-c2onc3ccc(Oc4ccccc4)c1c23` are 10.3 µM and 14.4 µM. On the same counts, the results for `COc1cc(CNCCc2ccccc2)cc(Cl)c1OCc1ccccc1` are 23.8 µM and 26.2 µM.

As to `CCOC(=O)C(C)Sc1nc(-c2cccs2)ccc1C#N` (stereo unspecified), the IC50 was 44.2 µM and the concentration for an effect of 90% (IC90) is 50.3 µM.

On to `COc1ccc(NC(=O)/C(Cl)=C(/Cl)S(=O)Cc2ccc(C)cc2)cn1` (stereo unspecified), for which the half-inhibitory concentration (IC50) was less than 0.2 µM and the IC90 was 0.36 µM. The like results for `c1ccc(CSc2ccc(-c3ccccn3)nn2)cc1` were, in that order, 89.4 µM and 94.2 µM. On the same counts, the results for `Cc1ccc(C)c(N/C(N)=N/c2nc(C)cc(C)n2)c1` are 7.67 µM and 12.7 µM.

Take `O=C(NCCc1ccc(Cl)cc1)c1ccc(CS(=O)Cc2ccc(Cl)cc2)o1` (stereo unspecified): the IC50 is 45.2 µM and the IC90 amounted to 52.1 µM. `COc1ccc(C(=O)COC(=O)[C@H](C)Nc2ccc(C(F)(F)F)cc2[N+](=O)[O-])cc1`: the IC50 is 18.1 µM and the IC90 was more than 25 µM. Turning to `O=C(NC1CCCCC1)C(c1cccs1)N(CCCN1CCOCC1)C(=O)c1ccc(-c2ccccc2)[nH]1` (stereo unspecified), the IC50 is 51.3 µM and the IC90 turned out to be 86.4 µM.

Regarding `CC(C)(C)c1ccc(C(=O)NC(=S)NNC(=O)COc2ccccc2)cc1`, the half-maximal inhibitory concentration (IC50) is 28.8 µM and the IC90 worked out at 42.9 µM.

(Values after PubChem BioAssay AID449764 (Southern Research Specialized Biocontainment Screening …, 2010).)
